The results in this text go back to ChEMBL document CHEMBL1123303, “Synthesis of 2-(4-substituted-1-piperazinyl)benzimidazoles as H1-antihistaminic agents” (J Med Chem, 1986).

One assay addresses Histamine H1 receptor (Cavia porcellus, UniProt P31389). In words: In vitro inhibition of histamine-induced contractions in guinea pig ileum. In kind it is functional, tissue-based.
The nature of assay [1]: In vivo for the inhibition of histamine-induced mortality in guinea pig. To be noted: Cavia porcellus. In kind it is functional.

pIC50: −log10 of the molar value. A value given as a limit tells only on which side of the number the result lay.

Chain of Histamine H1 receptor (P31389 whole entry): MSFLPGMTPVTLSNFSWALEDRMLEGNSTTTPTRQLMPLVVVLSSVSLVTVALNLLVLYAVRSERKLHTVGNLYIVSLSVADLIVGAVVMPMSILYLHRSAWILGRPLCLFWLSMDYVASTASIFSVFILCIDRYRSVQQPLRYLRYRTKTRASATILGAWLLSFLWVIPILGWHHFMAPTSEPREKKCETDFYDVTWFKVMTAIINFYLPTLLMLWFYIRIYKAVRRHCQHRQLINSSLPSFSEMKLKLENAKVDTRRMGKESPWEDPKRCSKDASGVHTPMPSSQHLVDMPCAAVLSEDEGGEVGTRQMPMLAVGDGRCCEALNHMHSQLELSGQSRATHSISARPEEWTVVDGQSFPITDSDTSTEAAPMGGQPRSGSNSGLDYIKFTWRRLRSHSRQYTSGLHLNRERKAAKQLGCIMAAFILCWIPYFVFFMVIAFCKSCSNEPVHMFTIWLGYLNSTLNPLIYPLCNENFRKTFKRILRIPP

For the compound `CN1CCN(c2nc3ccccc3n2-c2ccccc2)CC1`, on Histamine H1 receptor, the pIC50 (commonly the IC50 on a negative log10 scale, so that one unit is a factor of ten) is 6.12.

For the compound `CCCC(C)Cn1c(N2CCN(C)CC2)nc2ccccc21` (configuration not stated), the negative-log IC50 (pIC50) at Histamine H1 receptor was 5.82.

For the compound `CN1CCN(c2nc3ccccc3n2Cc2ccccc2)CC1`, at Histamine H1 receptor, the pIC50 was 7.77. In assay [1], the ED50 – broadly, the dose that gives a 50% effect, or the effect in half of the subjects – was above 0.05 mg/kg.

In turn, `CCCOCn1c(N2CCN(C)CC2)nc2ccccc21` showed a pIC50 against Histamine H1 receptor of 7.74. This compound also yielded an ED50 in assay [1] above 0.1 mg/kg.

Regarding `CCOCCn1c(N2CCCN(CC)CC2)nc2ccccc21`, the pIC50 at Histamine H1 receptor is 7.80. This compound also gave an ED50 in assay [1] of 0.032 mg/kg.

As for `CCCCCn1c(N2CCN(C)CC2)nc2ccccc21`, on Histamine H1 receptor, the pIC50 was 7.72. This compound also returned an ED50 in assay [1] of 0.19 mg/kg.

On to `COCCCn1c(N2CCN(C)CC2)nc2ccccc21`, for which the pIC50 at Histamine H1 receptor was 6.07. In assay [1], the ED50 is above 0.1 mg/kg.

As for `CCCC(C)n1c(N2CCN(C)CC2)nc2ccccc21` (configuration not stated), the pIC50 against Histamine H1 receptor was 5.85.

In the case of `CCSCCCn1c(N2CCN(C)CC2)nc2ccccc21`, at Histamine H1 receptor, the pIC50 is 6.28.

`CCOCCn1c(N2CCN(Cc3ccccc3)CC2)nc2ccccc21` had a negative logarithm of the IC50 (pIC50) on Histamine H1 receptor of 7.57. In assay [1], this compound showed an ED50 of 0.039 mg/kg.

Regarding `CCOCCn1c(N2CCN(c3ccccc3)CC2)nc2ccccc21`, the pIC50 on Histamine H1 receptor was below 5.00.

For `CN1CCN(c2nc3ccccc3n2CCc2ccccc2)CC1`, the negative-log IC50 (pIC50) against Histamine H1 receptor is 6.62.

Compound `CCCCN1CCCN(c2nc3ccccc3n2CCOCC)CC1` showed a pIC50 against Histamine H1 receptor of 8.08. In assay [1], this compound displayed a 50% effective dose (ED50) of 0.12 mg/kg.

As for `CN1CCN(c2nc3ccccc3n2CCOCc2ccccc2)CC1`, the negative logarithm of the IC50 (pIC50) on Histamine H1 receptor is 6.37. Besides, the ED50 in assay [1] was above 0.1 mg/kg.

`C=CCOCCn1c(N2CCN(C)CC2)nc2ccccc21`: the pIC50 against Histamine H1 receptor was 7.77.

For `CCSCCn1c(N2CCN(C)CC2)nc2ccccc21`, the pIC50 against Histamine H1 receptor was 7.72. The same compound came in with an ED50 in assay [1] of 0.28 mg/kg.

As for `CCCCCCCCCCn1c(N2CCN(C)CC2)nc2ccccc21`, the pIC50 against Histamine H1 receptor was 5.38.

As for `CCCCCCCn1c(N2CCN(C)CC2)nc2ccccc21`, the pIC50 against Histamine H1 receptor is 6.82.

In turn, `CCOCCn1c(N2CCN(CC)CC2)nc2ccccc21` gave a pIC50 against Histamine H1 receptor of 7.74.

The compound `CCCn1c(N2CCN(C)CC2)nc2ccccc21` gave a pIC50 on Histamine H1 receptor of 6.42.

`CN1CCN(c2nc3ccccc3n2CCOCCO)CC1` gave a pIC50 on Histamine H1 receptor of 7.38. Moreover, the ED50 in assay [1] amounted to 0.051 mg/kg.

`C=COCCn1c(N2CCN(C)CC2)nc2ccccc21` showed a pIC50 against Histamine H1 receptor of 8.00. The same compound showed an ED50 in assay [1] of 0.023 mg/kg.

In turn, `CCCN1CCN(c2nc3ccccc3n2CCOCC)CC1` showed a pIC50 against Histamine H1 receptor of 7.80. Moreover, the 50% effect level in assay [1] (ED50) was put at a dose of 0.021 mg/kg.

On to `CCCCCN1CCN(c2nc3ccccc3n2CCOCC)CC1`, for which the pIC50 on Histamine H1 receptor is 7.52. The ED50 in assay [1] was above 0.1 mg/kg.

`C=CCOCCn1c(N2CCCN(C)CC2)nc2ccccc21` gave a pIC50 on Histamine H1 receptor of 8.00.

On to `CCCOCCn1c(N2CCCN(C)CC2)nc2ccccc21`, for which, at Histamine H1 receptor, the pIC50 is 7.80.

Turning to `CCOCCn1c(N2CCCN(Cc3ccccc3)CC2)nc2ccccc21`, on Histamine H1 receptor, the pIC50 was 7.82. The compound also returned an ED50 in assay [1] above 0.1 mg/kg.

`CN1CCN(c2nc3ccccc3[nH]2)CC1` gave a pIC50 on Histamine H1 receptor below 5.52.

Turning to `CCCCOCCn1c(N2CCCN(C)CC2)nc2ccccc21`, at Histamine H1 receptor, the pIC50 was 8.00. Moreover, the ED50 in assay [1] is above 0.1 mg/kg.

In turn, `CCCCCCN1CCN(c2nc3ccccc3n2CCOCC)CC1` showed a pIC50 on Histamine H1 receptor of 8.07. Moreover, in assay [1], the ED50 was above 0.1 mg/kg.

Consider `CCCOCCn1c(N2CCN(C)CC2)nc2ccccc21`, for which the pIC50 on Histamine H1 receptor was 7.70.

For the compound `CCOCCn1c(N2CCN(C=O)CC2)nc2ccccc21`, the pIC50 against Histamine H1 receptor is below 5.52.

As to `CCOCCn1c(N2CCCNCC2)nc2ccccc21`, the pIC50 against Histamine H1 receptor is 7.60. Moreover, the ED50 in assay [1] was 0.041 mg/kg.

On to `CCCCCN1CCCN(c2nc3ccccc3n2CCOCC)CC1`, for which the pIC50 at Histamine H1 receptor was 8.13. The compound also displayed an ED50 in assay [1] above 0.05 mg/kg.

Regarding `CCCCOCCn1c(N2CCN(C)CC2)nc2ccccc21`, the pIC50 against Histamine H1 receptor is 7.42. In assay [1], the ED50 is above 0.1 mg/kg.

With `CN1CCN(c2nc3ccccc3n2CCOc2ccccc2)CC1`, the pIC50 against Histamine H1 receptor is 8.16.

With `CCCSCn1c(N2CCN(C)CC2)nc2ccccc21`, the pIC50 against Histamine H1 receptor was 7.17.

In the case of `C#CCOCCn1c(N2CCN(C)CC2)nc2ccccc21`, the pIC50 against Histamine H1 receptor is 7.92.

As for `CN1CCN(c2nc3ccccc3n2C)CC1`, the pIC50 against Histamine H1 receptor is 6.49.

In turn, `CN1CCN(c2nc3ccccc3n2CCO)CC1` showed a negative logarithm of the IC50 (pIC50) at Histamine H1 receptor of 6.39.

As for `CCOCCn1c(N2CCNCC2)nc2ccccc21`, on Histamine H1 receptor, the pIC50 is 7.96.

`CCCCn1c(N2CCN(C)CC2)nc2ccccc21` gave a pIC50 against Histamine H1 receptor of 7.30.

Consider `CCCCCCn1c(N2CCN(C)CC2)nc2ccccc21`, for which, on Histamine H1 receptor, the pIC50 is 7.59.

`CCCCN1CCN(c2nc3ccccc3n2CCOCC)CC1` had a pIC50 against Histamine H1 receptor of 7.82. The compound also had a 50% effective dose (ED50) in assay [1] above 0.1 mg/kg.

`CC(C)CCn1c(N2CCN(C)CC2)nc2ccccc21` showed a pIC50 on Histamine H1 receptor of 5.85.

Compound `COCCn1c(N2CCN(C)CC2)nc2ccccc21` had a pIC50 against Histamine H1 receptor of 7.89. Moreover, the ED50 in assay [1] was above 0.05 mg/kg.

As for `C#CCOCCn1c(N2CCCN(C)CC2)nc2ccccc21`, the pIC50 on Histamine H1 receptor was 8.00.

Consider `CCOCCn1c(N2CCN(C(c3ccccc3)c3ccccc3)CC2)nc2ccccc21`, for which the pIC50 against Histamine H1 receptor was below 5.52.

`CCOCCn1c(N2CCN(CCc3ccccc3)CC2)nc2ccccc21` had a pIC50 at Histamine H1 receptor of 7.51. For the same compound, the ED50 in assay [1] is above 0.1 mg/kg.

Consider `CCCN1CCCN(c2nc3ccccc3n2CCOCC)CC1`, for which the pIC50 on Histamine H1 receptor is 8.08. The compound also registered a median effective dose (ED50) in assay [1] above 0.1 mg/kg.

Consider `CN1CCCN(c2nc3ccccc3n2CCOc2ccccc2)CC1`, for which the pIC50 on Histamine H1 receptor was 8.04.

For `CCOCCn1c(N2CCN(C)CC2)nc2ccccc21`, at Histamine H1 receptor, the pIC50 was 8.00.

On to `CCOCCn1c(N2CCCN(C)CC2)nc2ccccc21` [EMEDASTINE], for which the negative-log IC50 (pIC50) against Histamine H1 receptor is 8.21. Also, in assay [1], the ED50 worked out at 0.0044 mg/kg.
